Data as given in US9834542B2, “LXR modulators” (BRISTOL-MYERS SQUIBB COMPANY, priority 2013, dated 2017).

Biological target: T1, LXRβ (Homo sapiens, UniProt P55055)
T1 construct: Co-transfection expression plasmids, comprising full-length LXRα (pCMX-h LXRα[…] or LXRβ (pCMX-hLXRβ)); expressed in transfected cells; host or cells: CV-1 African Green Monkey Kidney Cells
T1 sequence (P55055 1-460): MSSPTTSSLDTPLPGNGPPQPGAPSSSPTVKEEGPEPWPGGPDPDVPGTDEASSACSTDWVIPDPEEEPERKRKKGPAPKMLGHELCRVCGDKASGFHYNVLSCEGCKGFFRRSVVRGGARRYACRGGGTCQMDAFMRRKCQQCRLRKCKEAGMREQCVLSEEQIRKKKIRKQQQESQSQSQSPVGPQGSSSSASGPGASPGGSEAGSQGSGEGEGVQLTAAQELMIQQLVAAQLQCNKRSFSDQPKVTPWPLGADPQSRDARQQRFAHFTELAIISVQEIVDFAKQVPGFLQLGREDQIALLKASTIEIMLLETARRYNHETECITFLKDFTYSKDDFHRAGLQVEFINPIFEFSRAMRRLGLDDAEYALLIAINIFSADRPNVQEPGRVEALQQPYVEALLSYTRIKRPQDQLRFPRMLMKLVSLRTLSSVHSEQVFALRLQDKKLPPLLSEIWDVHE
T1 sequence (P19793 1-462 partner): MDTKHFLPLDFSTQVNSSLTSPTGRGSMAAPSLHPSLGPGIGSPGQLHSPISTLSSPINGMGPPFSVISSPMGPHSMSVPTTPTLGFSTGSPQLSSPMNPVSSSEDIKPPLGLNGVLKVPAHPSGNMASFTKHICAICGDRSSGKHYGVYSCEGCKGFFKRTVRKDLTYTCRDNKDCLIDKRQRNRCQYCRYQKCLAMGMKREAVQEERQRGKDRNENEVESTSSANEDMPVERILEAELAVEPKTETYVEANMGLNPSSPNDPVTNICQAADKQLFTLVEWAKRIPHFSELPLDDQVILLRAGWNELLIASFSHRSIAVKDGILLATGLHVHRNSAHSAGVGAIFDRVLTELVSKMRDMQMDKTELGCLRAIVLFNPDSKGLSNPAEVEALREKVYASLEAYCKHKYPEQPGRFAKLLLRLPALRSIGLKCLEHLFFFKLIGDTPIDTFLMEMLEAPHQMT
Assay: Co-transfection assay (LXRE luciferase reporter), LXRβ
Assay type: cell-based
Settings: for EC50: CV-1 cells transfected with pCMX-hLXRβ and LXREx1-Tk-Luciferase, 20 hours incubation; for Emax: LXRβ co-transfection, relative to high control 1-(2,4-difluorobenzyl)-2-oxo-6-(4-phenoxyphenyl)-4-(trifluoromethyl)-1,2-dihydropyridine-3-carbonitrile, read-out: % Efficacy
Method in brief: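 CV-1 cells transiently co-transfected with full-length human LXRβ expression plasmid, LXREx1-Tk-luciferase reporter and β-galactosidase control, then exposed to compound for 20 h at 37 °C. Luciferase luminescence read; EC50 from 11-point, ½-log dose–response fit, efficacy relative to high-control agonist maximum.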

SMILES | EC50 | Emax
Cc1nc(C(F)(F)F)cn1-c1ccc(-c2ccc(CO)c(S(C)(=O)=O)c2)cc1-c1nc(C(C)C)oc1-c1ccc(OC(F)(F)F)cc1 [Example 521, (3′-(2-isopropyl-5-(4-(trifluoromethoxy)phenyl)oxazol-4-yl)-4′-(2-methyl-4-(trifluoromethyl)-1H-imidazol-1-yl)-3-(methylsulfonyl)-[1,1′-biphenyl]-4-yl)methanol] | 21 nM | 71%
Cc1nc(-c2cc(-c3cc(F)c(CO)c(S(C)(=O)=O)c3)ccc2-n2cc(C(F)(F)F)nc2C)c(-c2ccc3c(c2)OCCO3)o1 [Example 444, (3′-(5-(2,3-dihydrobenzo[b][1,4]dioxin-6-yl)-2-methyloxazol-4-yl)-3-fluoro-4′-(2-methyl-4-(trifluoromethyl)-1H-imidazol-1-yl)-5-(methylsulfonyl)biphenyl-4-yl)methanol] | 125 nM | 74%
CS(=O)(=O)c1cccc(-c2ccc(-n3cnc(C(F)F)c3)c(-n3nncc3-c3ccc(OC(F)(F)F)cc3)c2)c1 [Example 170, 1-{4-[4-(difluoromethyl)-1H-imidazol-1-yl]-3′-(methylsulfonyl)biphenyl-3-yl}-5-{4-[(trifluoromethyl)oxy]phenyl}-1H-1,2,3-triazole] | 3330 nM | 92%
Cc1nc(C(F)F)cn1-c1ccc(-c2cc(Cl)c(CO)c(S(C)(=O)=O)c2)cc1-n1nncc1-c1ccc(OC(F)(F)F)cc1 [Example 158, {3-chloro-4′-[4-(difluoromethyl)-2-methyl-1H-imidazol-1-yl]-5-(methylsulfonyl)-3′-(5-{4-[(trifluoromethyl)oxy]phenyl}-1H-1,2,3-triazol-1-yl)biphenyl-4-yl}methanol] | 1410 nM | 88%
Cc1nc(C(F)(F)F)cn1-c1ccc(-c2ccc(CO)c(S(C)(=O)=O)c2)cc1-c1nc(CC(C)C)oc1-c1ccc(OC(F)(F)F)cc1 [Example 563, (3′-(2-isobutyl-5-(4-(trifluoromethoxy)phenyl)oxazol-4-yl)-4′-(2-methyl-4-(trifluoromethyl)-1H-imidazol-1-yl)-3-(methylsulfonyl)-[1,1′-biphenyl]-4-yl)methanol] | 13 nM | 70%
Cc1cc(-c2oc(C)nc2-c2cc(-c3cccc(S(C)(=O)=O)c3)ccc2-n2cc(Cl)nc2C)cc(Cl)n1 [Example 468, 4-(4-(4-chloro-2-methyl-1H-imidazol-1-yl)-3′-(methylsulfonyl)biphenyl-3-yl)-5-(2-chloro-6-methylpyridin-4-yl)-2-methyloxazole] | 442 nM | 47%
COc1cnc(-c2oc(C)nc2-c2cc(-c3cc(F)c(CO)c(S(C)(=O)=O)c3)ccc2-n2cc(C(F)(F)F)nc2C)cn1 [Example 413, (3-fluoro-3′-(5-(5-methoxypyrazin-2-yl)-2-methyloxazol-4-yl)-4′-(2-methyl-4-(trifluoromethyl)-1H-imidazol-1-yl)-5-(methylsulfonyl)biphenyl-4-yl)methanol] | 426 nM | 63%
Cc1nc(C(F)(F)F)c(Cl)n1-c1ccc(-c2cc(Cl)c(CO)c(S(C)(=O)=O)c2)cc1-n1nncc1-c1ccc(OC(F)(F)F)cc1 [Example 60, {3-chloro-4′-[5-chloro-2-methyl-4-(trifluoromethyl)-1H-imidazol-1-yl]-5-(methylsulfonyl)-3′-(5-{4-[(trifluoromethyl)oxy]phenyl}-1H-1,2,3-triazol-1-yl)biphenyl-4-yl}methanol] | 245 nM | 121%
Cc1nc(-c2cc(-c3cccc(S(C)(=O)=O)c3)ccc2-n2cc(C(F)(F)F)nc2C)c(-c2ccc3c(c2)CC(C)(C)O3)o1 [Example 419, 5-(2,2-dimethyl-2,3-dihydrobenzofuran-5-yl)-2-methyl-4-(4-(2-methyl-4-(trifluoromethyl)-1H-imidazol-1-yl)-3′-(methylsulfonyl)biphenyl-3-yl)oxazole] | 145 nM | 66%

The next lines start with the values.

EC50 | Emax | SMILES
411 nM | 57% | Cc1nc(C(F)(F)F)cn1-c1ccc(-c2cccc(S(C)(=O)=O)c2)cc1-n1nncc1C(C)(F)c1ccc(Cl)cc1 (stereo not shown) [Example 224, 5-(1-(4-chlorophenyl)-1-fluoroethyl)-1-(4-(2-methyl-4-(trifluoromethyl)-1H-imidazol-1-yl)-3′-(methylsulfonyl)-[1,1′-biphenyl]-3-yl)-1H-1,2,3-triazole]
217 nM | 78% | Cc1nc(C(F)(F)F)cn1-c1ccc(-c2cc(F)c(CO)c(S(C)(=O)=O)c2)cc1-n1nncc1-c1ccc(Cl)cc1 [Example 58, {3′-[5-(4-chlorophenyl)-1H-1,2,3-triazol-1-yl]-3-fluoro-5-(methylsulfonyl)-4′-[2-methyl-4-(trifluoromethyl)-1H-imidazol-1-yl]biphenyl-4-yl}methanol]
489 nM | 90% | COCS(=O)(=O)c1cccc(-c2ccc(-n3cc(C(F)(F)F)nc3C)c(-n3nncc3-c3ccc(OC(F)(F)F)cc3)c2)c1 [Example 238, 1-(3′-((methoxymethyl)sulfonyl)-4-(2-methyl-4-(trifluoromethyl)-1H-imidazol-1-yl)-[1,1′-biphenyl]-3-yl)-5-(4-(trifluoromethoxy)phenyl)-1H-1,2,3-triazole]
792 nM | 68% | Cc1nc(C(C)(F)F)cn1-c1ccc(-c2cccc(S(C)(=O)=O)c2)cc1-n1nncc1-c1ccc(Cl)cc1 [Example 176, 5-(4-chlorophenyl)-1-{4-[4-(1,1-difluoroethyl)-2-methyl-1H-imidazol-1-yl]-3′-(methylsulfonyl)biphenyl-3-yl}-1H-1,2,3-triazole]
270 nM | 93% | Cc1ccc(Cc2cnnn2-c2cc(-c3cccc(S(C)(=O)=O)c3)ccc2-n2cc(C(F)(F)F)nc2C)cc1 [Example 126, 5-[(4-methylphenyl)methyl]-1-{3′-(methylsulfonyl)-4-[2-methyl-4-(trifluoromethyl)-1H-imidazol-1-yl]biphenyl-3-yl}-1H-1,2,3-triazole]
619 nM | 106% | Cc1nc(C(F)(F)F)cn1-c1ccc(-c2cc(F)c(CO)c(S(C)(=O)=O)c2)cc1-n1nncc1C(=O)c1ccc(C(F)(F)F)cc1 [Example 141, (1-{3′-fluoro-4′-(hydroxymethyl)-5′-(methylsulfonyl)-4-[2-methyl-4-(trifluoromethyl)-1H-imidazol-1-yl]biphenyl-3-yl}-1H-1,2,3-triazol-5-yl)[4-(trifluoromethyl)phenyl]meth-anone]
913 nM | 82% | Cc1nc(-c2cc(-c3cccc(S(C)(=O)=O)c3)ccc2-n2cc(C(F)(F)F)nc2C)c(-c2cccnc2Cl)o1 [Example 552, 5-(2-chloropyridin-3-yl)-2-methyl-4-(4-(2-methyl-4-(trifluoromethyl)-1H-imidazol-1-yl)-3′-(methylsulfonyl)-[1,1′-biphenyl]-3-yl)oxazole]
444 nM | 75% | Cc1nc(Cl)cn1-c1ccc(-c2cccc(S(C)(=O)=O)c2)cc1-n1nncc1-c1ccc(OC(F)(F)F)cc1 [Example 149, 1-[4-(4-chloro-2-methyl-1H-imidazol-1-yl)-3′-(methylsulfonyl)biphenyl-3-yl]-5-{4-[(trifluoromethyl)oxy]phenyl}-1H-1,2,3-triazole]
113 nM | 99% | Cc1nc(C(F)(F)F)cn1-c1ccc(-c2cccc(S(C)(=O)=O)c2)cc1-n1nncc1-c1ccc(N(C)C)cc1 [Example 22, N,N-dimethyl-4-(1-{3′-(methylsulfonyl)-4-[2-methyl-4-(trifluoromethyl)-1H-imidazol-1-yl]biphenyl-3-yl}-1H-1,2,3-triazol-5-yl)aniline]
2150 nM | 40% | COc1ccc(-c2cnnn2-c2cc(-c3cccc(S(C)(=O)=O)c3)ccc2-n2cc(C(F)(F)F)nc2C)c(OC)c1 [Example 93, 5-[2,4-bis(methyloxy)phenyl]-1-{3′-(methylsulfonyl)-4-[2-methyl-4-(trifluoromethyl)-1H-imidazol-1-yl]biphenyl-3-yl}-1H-1,2,3-triazole]
1020 nM | 76% | Cc1nc(C(F)(F)F)cn1-c1ccc(-c2cc(Cl)c(CO)c(S(C)(=O)=O)c2)cc1-n1nncc1Cc1cccc(Cl)c1 [Example 117, (3-chloro-3′-{5-[(3-chlorophenyl)methyl]-1H-1,2,3-triazol-1-yl}-5-(methylsulfonyl)-4′-[2-methyl-4-(trifluoromethyl)-1H-imidazol-1-yl]biphenyl-4-yl)methanol]
